Assay [1] deals with MDA-MB-231. As to the kind of experiment: MTT cell growth inhibition, MDA-MB-231. Type of assay: cell-based. The conditions noted are these: Homo sapiens, MDA-MB-231, 96 h, read-out: IC50 MDA-MB-231.
The target in assay [2] is T1, SMYD3 (Homo sapiens, UniProt Q9H7B4).
T1 sequence (Q9H7B4 1-428): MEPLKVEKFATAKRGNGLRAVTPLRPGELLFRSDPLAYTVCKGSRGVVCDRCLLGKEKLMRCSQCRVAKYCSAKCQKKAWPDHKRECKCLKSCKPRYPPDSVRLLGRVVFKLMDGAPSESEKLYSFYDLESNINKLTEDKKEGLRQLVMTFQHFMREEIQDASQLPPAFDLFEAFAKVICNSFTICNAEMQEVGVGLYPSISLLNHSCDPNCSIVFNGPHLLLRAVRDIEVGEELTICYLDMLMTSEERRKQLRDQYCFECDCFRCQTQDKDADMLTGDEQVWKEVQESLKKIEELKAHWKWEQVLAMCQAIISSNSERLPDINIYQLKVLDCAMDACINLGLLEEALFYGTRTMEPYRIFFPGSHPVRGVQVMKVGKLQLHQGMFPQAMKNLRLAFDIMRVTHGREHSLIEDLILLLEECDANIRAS
In words: Enzyme selectivity assay, SMYD3. The format is biochemical. The conditions noted are these: means of at least three measurements.

The target in assay [3] is PRMT1 (Homo sapiens, UniProt Q99873). In words: Enzyme selectivity assay, PRMT1. The format is biochemical. Particulars: means of at least three measurements.
Sequence of PRMT1 (Q99873 whole entry, species assumed): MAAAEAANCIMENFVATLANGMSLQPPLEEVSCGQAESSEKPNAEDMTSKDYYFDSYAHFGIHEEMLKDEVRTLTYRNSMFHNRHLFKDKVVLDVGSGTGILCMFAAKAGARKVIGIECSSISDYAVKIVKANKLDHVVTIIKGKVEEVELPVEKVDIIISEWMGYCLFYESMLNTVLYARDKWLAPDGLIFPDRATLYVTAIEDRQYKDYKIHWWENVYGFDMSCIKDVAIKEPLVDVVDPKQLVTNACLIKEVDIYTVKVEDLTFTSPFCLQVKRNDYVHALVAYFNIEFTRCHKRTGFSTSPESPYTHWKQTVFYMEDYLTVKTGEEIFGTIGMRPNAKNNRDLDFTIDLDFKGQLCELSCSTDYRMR
For assay [4], the target named is T2, SUV39H1 (Homo sapiens, UniProt O43463).
T2 sequence (O43463 1-412): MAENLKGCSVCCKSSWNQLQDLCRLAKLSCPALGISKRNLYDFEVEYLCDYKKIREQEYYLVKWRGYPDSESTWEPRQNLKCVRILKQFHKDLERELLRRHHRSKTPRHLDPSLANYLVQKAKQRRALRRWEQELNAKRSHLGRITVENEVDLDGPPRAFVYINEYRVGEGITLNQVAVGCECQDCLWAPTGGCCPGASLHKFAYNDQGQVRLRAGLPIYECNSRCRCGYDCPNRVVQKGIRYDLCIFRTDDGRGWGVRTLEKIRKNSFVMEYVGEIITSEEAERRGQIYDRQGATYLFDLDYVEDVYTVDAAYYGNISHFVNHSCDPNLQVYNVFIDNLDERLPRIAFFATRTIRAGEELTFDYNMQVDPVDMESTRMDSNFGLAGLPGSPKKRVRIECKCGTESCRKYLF
In words: Enzyme selectivity assay, SUV39H1. Type of assay: biochemical. The conditions noted are these: means of at least three measurements.

Assay [5] has as its target T3, G9a (Homo sapiens, UniProt Q96KQ7).
T3 sequence (Q96KQ7 1-1210): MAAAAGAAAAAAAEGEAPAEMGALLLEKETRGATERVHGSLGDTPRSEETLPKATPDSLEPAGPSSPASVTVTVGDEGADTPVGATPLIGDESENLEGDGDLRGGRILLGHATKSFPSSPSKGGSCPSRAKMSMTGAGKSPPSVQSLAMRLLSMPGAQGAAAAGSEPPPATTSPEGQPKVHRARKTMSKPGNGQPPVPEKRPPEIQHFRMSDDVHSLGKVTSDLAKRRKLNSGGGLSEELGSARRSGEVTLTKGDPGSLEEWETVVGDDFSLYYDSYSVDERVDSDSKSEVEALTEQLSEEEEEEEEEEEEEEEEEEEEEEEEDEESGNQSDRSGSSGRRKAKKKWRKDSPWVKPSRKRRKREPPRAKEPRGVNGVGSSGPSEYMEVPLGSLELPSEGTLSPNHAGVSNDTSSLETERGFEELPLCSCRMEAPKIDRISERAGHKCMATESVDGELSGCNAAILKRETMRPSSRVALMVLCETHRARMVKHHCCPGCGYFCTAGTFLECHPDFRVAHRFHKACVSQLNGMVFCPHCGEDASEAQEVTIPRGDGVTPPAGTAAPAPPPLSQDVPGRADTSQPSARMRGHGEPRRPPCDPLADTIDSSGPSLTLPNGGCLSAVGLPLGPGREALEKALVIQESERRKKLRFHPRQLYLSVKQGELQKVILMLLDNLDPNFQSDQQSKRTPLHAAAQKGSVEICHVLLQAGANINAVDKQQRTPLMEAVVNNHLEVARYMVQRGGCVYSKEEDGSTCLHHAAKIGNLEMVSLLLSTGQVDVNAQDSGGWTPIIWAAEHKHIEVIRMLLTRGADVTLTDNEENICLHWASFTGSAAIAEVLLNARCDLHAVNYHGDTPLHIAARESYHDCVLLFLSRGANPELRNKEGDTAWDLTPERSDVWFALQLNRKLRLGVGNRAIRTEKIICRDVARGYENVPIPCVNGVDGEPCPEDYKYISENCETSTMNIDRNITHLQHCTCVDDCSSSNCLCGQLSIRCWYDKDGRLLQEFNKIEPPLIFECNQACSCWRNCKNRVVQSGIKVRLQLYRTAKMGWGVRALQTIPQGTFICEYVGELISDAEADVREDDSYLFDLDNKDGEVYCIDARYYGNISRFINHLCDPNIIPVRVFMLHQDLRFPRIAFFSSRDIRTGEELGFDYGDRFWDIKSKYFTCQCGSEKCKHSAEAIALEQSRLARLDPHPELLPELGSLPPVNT
As to the kind of experiment: Enzyme selectivity assay, G9a. The conditions noted are these: means of at least three measurements. Type of assay: biochemical.

Assay [6] addresses SETDB1 (Homo sapiens, UniProt Q15047). As to the kind of experiment: Enzyme selectivity assay, SETDB1. Type of assay: biochemical. The conditions noted are these: means of at least three measurements.
Assay [7] concerns the target T4, SETD8 (Homo sapiens, UniProt Q9NQR1).
T4 sequence (Q9NQR1 1-393): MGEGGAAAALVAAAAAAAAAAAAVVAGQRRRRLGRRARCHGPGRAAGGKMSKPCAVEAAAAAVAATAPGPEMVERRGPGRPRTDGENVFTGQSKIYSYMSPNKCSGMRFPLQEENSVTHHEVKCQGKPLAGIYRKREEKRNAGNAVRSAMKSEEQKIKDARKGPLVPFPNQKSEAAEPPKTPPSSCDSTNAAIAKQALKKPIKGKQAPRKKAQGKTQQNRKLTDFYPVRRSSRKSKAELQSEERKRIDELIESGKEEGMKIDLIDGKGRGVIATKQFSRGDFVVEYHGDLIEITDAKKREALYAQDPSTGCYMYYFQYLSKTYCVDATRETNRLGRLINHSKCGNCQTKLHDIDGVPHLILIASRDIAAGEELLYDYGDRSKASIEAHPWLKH
As to the kind of experiment: Enzyme selectivity assay, SETD8. Type of assay: biochemical. Particulars: means of at least three measurements.

The test system of assay [8] is H3K27me3 level in MDA-MB-231 cell line. In words: Western blotting assay of H3K27me3 status. Type of assay: cell-based, human. Particulars: MDA-MB-231 cells, treatment for 72 h, western blot, total H3 loading control. As for the experimental part:
The main catalytic activity of EZH2 is methylating histone 3 lysine 27 (H3K27), so evaluation of H3K27me3 was conducted through a western blotting assay.
Figure 3 Analysis of H3K27 methylation in MDA-MB-231 cell line treated with 1 and 5k. Evaluation of H3K27me3 following treatment for 72 h. Total H3 is shown as a loading control.
The western blotting assay of H3K27 status was performed as previously described.
(In western blotting, separated proteins are transferred to a membrane and probed.)

For assay [9], the system named is HCT15. As to the kind of experiment: MTT cell growth inhibition, HCT15. The format is cell-based, human. Particulars: means of at least three measurements.

“Also recorded” adds a separate entry of the source. Like-named read-outs stand apart in the source and are kept apart here.

What is called IC50 is the concentration that gives 50% inhibition.

Take `COc1cccc2nc(N3CCCN(C)CC3)cc(NC3CCN(C)CC3)c12` [Compound 5k, 5-Methoxy-2-(4-methyl-1,4-diazepan-1-yl)-N-(1-methylpiperidin-4-yl)quinolin-4-amine]: the IC50 in assay [1] was found to be 2.45 ± 0.24 µM; in assay [2], 35.4 ± 1.97 µM; in [3], 28.8 ± 1.25 µM; in [4], 21.2 ± 0.28 µM; in assay [5] it was 82.6 ± 2.23 µM; in assay [6], 27 ± 1.36 µM. Moreover, the IC50 came to 40 ± 2.71 µM in assay [7]; 5.6 µM in assay [9] (Homo sapiens, HCT-15, 96 h, read-out: IC50 HCT15, MTT, treatment 96 h); 7.6 ± 0.46 µM in assay [9] (read-out: IC50 HCT15, MTT, treatment 96 h). The H3K27me3 level result in assay [8] is given as “decreased global H3K27me3 level in cells; also recorded: obviously down-regulated”.

For the origin of these results see publication PMC6272711, “5-Methoxyquinoline Derivatives as a New Class of EZH2 Inhibitors” (Molecules, 2015).
